Results on three compounds are retold here after patent publication US20260315446A1, “ANTIFUNGAL COMPOUNDS AND USES THEREOF” (priority 2023, published 2026).

“Also recorded” adds a separate entry of the source.

Data set [1] relates to T follicular helper (Tfh) cells. The data set is described as follows: In vivo immunosuppression, T follicular helper cells (Example 3). Particulars: 8 days. As for the experimental part: The in vivo immunosuppressive effect of JH-FK-08 was assessed by studying T follicular helper (Tfh) cell production in mice. Tfh cells play a role in protection against and response to fungal infections (see, Wong G K, et al., 1998. J Antibiot 51:487-491; Cruz M C, et al., 1999. Mol Cell Biol 19:4101-4112). For this study, immunocompetent C57BL/6 mice received 8 days of twice-daily dosing of vehicle, FK506 (2.5 mg/kg), or JH-FK-08 (20 or 40 mg/kg). Twenty-four hours after the first dose, mice were immunized with NP-OVA to induce an immune response. Cells were analyzed 7 days post immunization, and cell types were analyzed by flow cytometry (FIG. 15B).
Cell surface staining of single cell suspensions was performed in staining buffer (PBS supplemented with 2 mM EDTA and 0.5% BSA). Anti-FcγR (93; Biolegend) was treated to block the Fe receptor before surface staining of primary cells isolated from lymph nodes of NP-OVA-immunized mice. Cells were stained with fixable viability dye (eBioscience) before surface staining to exclude dead cells from analysis. For the detection of intracellular cytokines, cells were additionally incubated with phorbol 12-myristate 13-acetate and ionomycin in the presence of GolgiStop (BD Biosciences) during the final 4 h of incubation. For intracellular staining, cells were fixed and permeabilized with Fixation/Permeabilization Buffer (eBioscience). Flow cytometric analysis was performed utilizing BD FACSCantoII or BD LSRFortessaX20 (BD Biosciences) and FlowJo software (BD Biosciences).
Groups of five female C57BL/6 mice were treated twice daily for 8 days with vehicle, FK506 (2.5 mg/kg), JH-FK-08 (20 mg/kg), or JH-FK-08 (40 mg/kg) via i.p. injection. Twenty-four hours after the first dose, animals were immunized with NP-OVA (100 μg) in alum via subcutaneous injection. Seven days post immunization, mice were sacrificed, and draining lymph nodes were harvested for the analysis of Tfh cells and GC B cells by flow cytometry.

Data set [2] has as its system C. neoformans growth versus IL-2 in murine T cells. Briefly: Therapeutic index score (immunosuppressive fold change to antifungal fold change relative to FK506). The arrangement: species or system Cryptococcus neoformans; mouse. To be noted: for Therapeutic Index Score: FK506 = 1.0. In outline:
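TIscore = ratio of immunosuppressive fold change (IL-2, murine T cells) to antifungal fold change (C. neoformans), both relative to FK506; values >1.0 denote greater fungal specificity. Derived from in vitro fungal versus mammalian calcineurin inhibition data.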

Take `C=CCC1C=C(C)CC(C)CC(OC)C2OC(O)(C(=O)C(=O)N3CCCCC3C(=O)OC(C(C)=CC3CCC(O)C(OC)C3)C(C)C(O)CC1=O)C(C)CC2OC` (stereo not shown) [FK506, reference compound]: the “production of Tfh cells” value in data set [1] (FK506 2.5 mg/kg i.p. twice daily, 2.5 mg/kg) is recorded as “significantly reduced; also recorded: significantly inhibits Tfh cell production at 1/16 of the dose of JH-FK-08”. In data set [2] (Example 3, C. neoformans H99, FK506 = 1.0), this compound showed a Therapeutic index of 1.0. Also, the “Therapeutic Index Score” value is reported as 1.0 in data set [2] (Table 12, Example 4) and 1.0 in data set [2] (Table 13, Example 4).
As to `C=CC[C@@H]1/C=C(\C)C[C@H](C)C[C@H](OC)[C@H]2O[C@@](O)(C(=O)C(=O)N3CCCC[C@H]3C(=O)O[C@H](/C(C)=C/[C@@H]3CC[C@@H](O)[C@H](OC)C3)[C@H](C)[C@@H](O)C/C1=N/NC(=O)CC)[C@H](C)C[C@@H]2OC` [JH-FK-02], in data set [2] (Example 1, C. neoformans MIC and IL-2 IC50, FK506 = 1.0), the “therapeutic index score (TIscore)” value is reported as 9.7.
On to `CC[C@@H]1/C=C(\C)C[C@H](C)C[C@H](OC)[C@H]2O[C@@](O)(C(=O)C(=O)N3CCCC[C@H]3C(=O)O[C@H](/C(C)=C/C3CC[C@@H](O)[C@H](OC)C3)[C@H](C)[C@@H](O)C/C1=N/NC(=O)OC)[C@H](C)C[C@@H]2OC` (stereo partly shown) [JH-FK-08], for which the “production of Tfh cells” value in data set [1] (JH-FK-08 20 mg/kg i.p. twice daily) is “no significant effect on the percent of Tfh cells produced compared to vehicle”; in data set [1] (JH-FK-08 40 mg/kg i.p. twice daily), “production of Tfh cells was reduced”.
